What was measured:
[1] = system: Diabrotica balteata (Corn Root Worm); experiment: Example B4: Diabrotica balteata, larvicide, feeding/residual contact, preventive; assay type: in vivo; conditions: 120 h, 5 days incubation, L2 larvae
Description: Diabrotica balteata (Corn Root Worm)
(§1) (Larvicide, Feeding/Residual Contact Activity, Preventive)
After drying, the MTP's are infested with larvae (L2)(6-10 per well). After an incubation period of 5 days, samples are checked for larval mortality, antifeedant and growth regulation. In this test, compounds listed in Table P above show good activity. In particular compounds P.1, P.2, P.5, P.6, P.10, P.11, P.12, P.13, P.15, P.16, P.17, P.18, P.19, P.24, P.25, P.27, P.28, P.29, P.30, P.31, P.33, P.34, P.35, P.37, P.38, P.39, P.42, P.43, P.44, P.45, P.46, P.47, P.48, P.49, P.50, P.52, P.53, P.65, P.67, P.68, P.69, P.70, P.71, P.72, P.75, P.78, and P.79 show an activity of over 80% at a concentration of 400 ppm.

[2] = system: Heliothis virescens (Tobacco Budworm); experiment: Example B2: activity against Heliothis virescens, ovo-larvicide, feeding/contact, curative; assay type: in vivo; conditions: 96 h, 4 days incubation, eggs 0-24 h old
Description: Activity Against Heliothis virescens (Tobacco Budworm)
(Ovo-Larvicide, Feeding/Contact Activity, Curative)
Eggs (0-24 h old) are placed in 24-well microtiter plate on artificial diet and treated with test solutions by pipetting. After an incubation period of 4 days, samples are checked for egg mortality, larval mortality, and growth regulation.

[3] = system: Spodoptera littoralis (Egyptian Cotton Leafworm); experiment: Example B1: activity against Spodoptera littoralis, larvicide, feeding/residual contact, preventive (cotton leaf discs); assay type: in vivo; conditions: foliar, 72 h, 3 days after treatment, L1 larvae
From the text: Activity Against Spodoptera littoralis (Egyptian Cotton Leafworm)
as §1
The samples are checked for mortality, repellent effect, feeding behaviour, and growth regulation 3 days after treatment. In this test, compounds listed in Table P above show good activity. In particular compounds P.1, P.2, P.3, P.4, P.5, P.6, P.7, P.9, P.10, P.11, P.12, P.13, P.15, P.16, P.17, P.18, P.19, P.20, P.21, P.22, P.23, P.24, P.25, P.26, P.27, P.28, P.29, P.30, P.31, P.32, P.33, P.34, P.35, P.36, P.37, P.38, P.39, P.40, P.41, P.42, P.43, P.44, P.45, P.46, P.47, P.48, P.49, P.50, P.51, P.52, P.53, P.54, P.55, P.56, P.57, P.58, P.59, P.60, P.61, P.63, P.64, P.67, P.68 and P.70 show an activity of over 80% at a concentration of 400 ppm.

[4] = system: Plutella xylostella (Diamond Back Moth); experiment: Example B3: Plutella xylostella, larvicide, feeding/residual contact, preventive (artificial diet MTP); assay type: in vivo; conditions: 120 h, 5 days incubation, L2 larvae
Description: Plutella xylostella (Diamond Back Moth)
as §1
24-well microtiter plate (MTP) with artificial diet is treated with test solutions by pipetting. After drying, the MTP's are infested with larvae (L2)(10-15 per well). After an incubation period of 5 days, samples are checked for larval mortality, antifeedant and growth regulation. In this test, compounds listed in Table P above show good activity. In particular compounds P.1, P.2, P.3, P.4, P.5, P.6, P.7, P.9, P.10, P.11, P.12, P.13, P.15, P.16, P.17, P.18, P.19, P.20, P.21, P.22, P.23, P.25, P.26, P.27, P.28, P.29, P.30, P.31, P.32, P.33, P.34, P.35, P.36, P.37, P.38, P.39, P.40, P.41, P.42, P.43, P.44, P.46, P.47, P.48, P.49, P.50, P.51, P.52, P.53, P.54, P.55, P.56, P.57, P.58, P.59, P.60, P.61, P.63, P.64, P.67, P.68, P.69 P.70, P.72, P.74, P.77, P78 and P.79 show an activity of over 80% at a concentration of 400 ppm.

[5] = system: Myzus persicae (Green Peach Aphid); experiment: Example B6: activity against Myzus persicae, mixed population, systemic/feeding, curative (pea seedling roots); conditions: 144 h, read-out: activity
[6] = system: Thrips tabaci (Onion Thrips); experiment: Example B7: activity against Thrips tabaci, mixed population, feeding/residual contact, preventive; conditions: 144 h, read-out: activity
[7] = system: Aphis craccivora (Pea Aphid); experiment: Example B11: activity against Aphis craccivora, mixed population, systemic/feeding; assay type: in vivo; conditions: 144 h, 6 days, roots in test solution (systemic)
From the text: Activity Against Aphis craccivora (Pea Aphid)
(Mixed Population, Systemic/Feeding)
6 days later, samples are checked for mortality.

[8] = system: Myzus persicae (Green Peach Aphid); experiment: Example B5: activity against Myzus persicae, mixed population, feeding/residual contact, preventive (sunflower leaf discs); conditions: foliar, 144 h, read-out: activity
[9] = system: Frankliniella occidentalis (Western Flower Thrips); experiment: Example B9: activity against Frankliniella occidentalis (bean leaf discs or bean plants); assay type: in vivo; conditions: foliar, 6 days (leaf discs) or 14 days (plants) after infestation
Description: Activity Against Frankliniella occidentalis (Western Flower Thrips)
Bean leaf discs on agar in petri dishes or bean plants in a spray chamber are treated with diluted test solutions. After drying leaf discs are cut and placed in plastic cups on the surface of an agar layer and infested with mixed population. 6 days (leaf discs) or 14 days (plants) after the infestation, samples are checked for reduction of treated population and compared to the non treated population.

[10] = system: Cydia pomonella (Codling Moth); experiment: Example B8: activity against Cydia pomonella (paraffin-coated diet cubes); assay type: in vivo; conditions: 336 h, 14 days incubation at 26° C.
Description: Activity Against Cydia pomonella (Codling Moth)
Standard Cydia diet cubes (1.5 cm width) are pierced with a tooth-pick and are immersed in liquid paraffin (ca. 80° C.). After the paraffin coat has hardened, an aqueous emulsion containing 400 ppm of active ingredient is applied using a De Vilbis sprayer (25 ml, 1 bar). After the spray coating has dried, the cubes are put into plastic containers which are then populated with two freshly hatched Cydia pomonella (1st instar). The containers are then closed with a plastic cap. After 14 days incubation at 26° C. and 40-60% relative humidity, the survival rate of the caterpillars as well as their growth regulation is determined. In this test, compounds listed in Table P above show good activity. In particular compounds P.10, P.11, P.12, P.18, P.19, P.20, P.29, P.30, P.31, P.32, P.33, P.34, P.35, P.37, P.38, P.39, P.42, and P.43 show an activity of over 80% at a concentration of 400 ppm.

Measured: pest or weed control at 400 ppm

CSCC(C)(C)NC(=O)c1c(NC(=O)c2cc(C(F)(F)F)nn2-c2ncccc2Cl)c(Cl)cc2cn[nH]c12 [P.13]
not listed: [10]
> 80%: all other assays above

CNC(=O)c1c(NC(=O)c2cc(C(F)(F)F)nn2-c2ncccc2Cl)c(Br)cc2cn[nH]c12 [P.17]
not listed: [6] | [7] | [10]
> 80%: all other assays above

Cc1ccc2c(C(=O)NC(C)C)c(NC(=O)c3cc(C(F)(F)F)nn3-c3ncccc3Cl)c(C)cc2n1 [P.20]
> 80%: [2] | [3] | [4] | [10]

O=C(NC1CC12CC2)c1c(NC(=O)c2cc(C(F)(F)F)nn2-c2ncccc2Cl)c(Cl)cc2cn[nH]c12 (stereo not shown) [P.31]
> 80%: [1] | [2] | [3] | [4] | [10] | [8]

CC1(NC(=O)c2c(NC(=O)c3cc(C(F)(F)F)nn3-c3ncccc3Cl)c(Cl)cc3cn[nH]c23)CSC1 [P.32]
not listed: [1] | [7] | [9]
> 80%: all other assays above

O=C(NC1(C2CC2)CC1)c1c(NC(=O)c2cc(Cl)nn2-c2ncccc2Cl)c(Cl)cc2cn[nH]c12 [P.45, 5-chloro-6-{[5-chloro-2-(3-chloro-pyridin-2-yl)-2H-pyrazole-3-carbonyl]-amino}-1H-indazole-7-carboxylic acid bicyclopropyl-1-ylamide]
not listed: [2] | [4] | [10]
> 80%: all other assays above

O=C(NC1(C2CC2)CC1)c1c(NC(=O)c2cc(OCC(F)(F)F)nn2-c2ncccc2Cl)c(Cl)cc2cn[nH]c12 [P.48]
not listed: [7] | [10]
> 80%: all other assays above

Cc1cc2cn[nH]c2c(C(=O)NC(C)C)c1NC(=O)c1cc(OCC(F)(F)F)nn1-c1ncccc1Cl [P.52, 6-{[2-(3-chloro-pyridin-2-yl)-5-(2,2,2-trifluoro-ethoxy)-2H-pyrazole-3-carbonyl]-amino}-5-methyl-1H-indazole-7-carboxylic acid isopropylamide]
not listed: [10]
> 80%: all other assays above

COc1cc(C(=O)Nc2c(Br)cc3cn[nH]c3c2C(=O)NC(C)(C)CS(C)(=O)=O)n(-c2ncccc2Cl)n1 [P.54]
not listed: [1] | [10]
> 80%: all other assays above

Cc1cc2cn[nH]c2c(C(=O)NC2(C3CC3)CC2)c1NC(=O)c1cc(OCC(F)(F)F)nn1-c1ncccc1Cl [P.70, 6-{[2-(3-chloro-pyridin-2-yl)-5-(2,2,2-trifluoro-ethoxy)-2H-pyrazole-3-carbonyl]-amino}-5-methyl-1H-indazole-7-carboxylic acid bicyclopropyl-1-ylamide]
not listed: [7] | [10]
> 80%: all other assays above
